Source: patent publication US6737383B1, “Herbicidal oxadiazolidines” (priority 1999, dated 2004)

Key:
surinam grass = experiment: Test B pre/postemergence surinam grass; format: in vivo, Brachiaria decumbens
Method in brief: (§1)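 Response is a visual 0-to-10 score relative to untreated plants, where 0 means no effect and 10 means complete control, taken twelve to sixteen days after application. Treatments went onto soil at planting and onto foliage of 1- to 4-leaf plants, using a surfactant-containing non-phytotoxic solvent.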

blackgrass = experiment: Test B pre/postemergence blackgrass; format: in vivo, Alopecurus myosuroides
Method in brief: as §1

bedstraw = experiment: Test B pre/postemergence bedstraw; format: in vivo, Galium aparine
Method in brief: as §1

morningglory = experiment: Test B pre/postemergence morningglory; format: in vivo, Ipomoea hederacea
Method in brief: as §1

cocklebur = experiment: Test B pre/postemergence cocklebur; format: in vivo, Xanthium strumarium
Method in brief: as §1

wheat = experiment: Test B pre/postemergence wheat; format: in vivo, Triticum aestivum; details: for Plant response rating, Wheat: Rate 250 g/ha
Method in brief: as §1

giant foxtail = experiment: Test B pre/postemergence giant foxtail; format: in vivo, Setaria faberii
Method in brief: as §1

soybean = experiment: Test B pre/postemergence soybean; format: in vivo, Glycine max
Method in brief: as §1

pigweed = experiment: Test B pre/postemergence pigweed; format: in vivo, Amaranthus retroflexus
Method in brief: as §1

wild oat = experiment: Test B pre/postemergence wild oat; format: in vivo, Avena fatua; details: for Plant response rating, Wild oats: Rate 250 g/ha
Method in brief: as §1

bamyardgrass = experiment: Test B flood test barnyardgrass; format: in vivo, Echinochloa crus-galli
Method in brief: (§2)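 Flood test on plants grown to the 2-leaf stage; treated plants kept in greenhouse twelve to sixteen days, then visually rated against controls on a 0 (no effect) to 10 (complete control) scale.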

rape = experiment: Test B pre/postemergence rape; format: in vivo, Brassica napus
Method in brief: as §1

purple nutsedge = experiment: Test B pre/postemergence purple nutsedge; format: in vivo, Cyperus rotundus
Method in brief: as §1

smallflower flatsedge = experiment: Test B flood test smallflower flatsedge; format: in vivo, Cyperus difformis
Method in brief: as §2

duck salad = experiment: Test B flood test duck salad; format: in vivo, Heteranthera limosa
Method in brief: as §2

sugar beet = experiment: Test B pre/postemergence sugar beet; format: in vivo, Beta vulgaris; details: for Plant response rating, Sugarbeets: Rate 250 g/ha
Method in brief: as §1

[1] = Postemergence, Rate 62 g/ha, scale 0 to 10, 0 is no effect, 10 is complete control
[2] = Postemergence, Rate 125 g/ha, scale of 0 to 10 where 0 is no effect and 10 is complete control
[3] = Postemergence, Rate 250 g/ha, scale 0 to 10, 0 no effect, 10 complete control
[4] = Preemergence, Rate 62 g/ha, scale 0 to 10 (0 no effect, 10 complete control)
[5] = Preemergence, Rate 125 g/ha, scale 0 to 10 (0 no effect, 10 complete control)
[6] = Preemergence, Rate 250 g/ha, scale of 0 to 10 where 0 is no effect and 10 is complete control
[7] = Preemergence, Rate 500 g/ha, scale 0 to 10 (0 no effect, 10 complete control)
[8] = Rate 62 g/ha, Postemergence, scale of 0 to 10 where 0 is no effect and 10 is complete control
[9] = Rate 500 g/ha, Postemergence, scale 0 to 10, 0 no effect, 10 complete control
[10] = Preemergence, Rate 125 g/ha, 0 is no effect, 10 is complete control
[11] = Preemergence, scale of 0 to 10 where 0 is no effect and 10 is complete control
[12] = Postemergence, scale 0 to 10, 0 is no effect, 10 is complete control
[13] = Rate 250 g/ha, Postemergence, scale 0 to 10, 0 is no effect, 10 is complete control
[14] = Postemergence (flood test species), Rate 125 g/ha, scale of 0 to 10 where 0 is no effect and 10 is complete control
[15] = Rate 250 g/ha, headed Pre-emergence (flood test species), scale 0 to 10 (0 no effect, 10 complete control)
[16] = Rate 500 g/ha, headed Pre-emergence (flood test species), scale 0 to 10 (0 no effect, 10 complete control)
[17] = Rate 500 g/ha, listed under Postemergence (flood test species), scale 0 to 10, 0 no effect, 10 complete control
[18] = Rate 1000 g/ha, Pre-emergence (as headed), scale 0 to 10
[19] = flood test, listed under Postemergence, Rate 250 g/ha, scale 0 to 10, 0 no effect, 10 complete control
[20] = Rate 62 g/ha, Postemergence section, flood test species, scale of 0 to 10 where 0 is no effect and 10 is complete control
[21] = Rate 2000 g/ha, Pre-emergence (as headed), scale 0 to 10

## Cc1nn(C)c(Cl)c1-n1c(=O)on(C(=O)N(c2ccccc2)C(C)C)c1=O [Compound 121]
Surinam grass; [1]
  B. signalgrass plant response rating: 0
Surinam grass; [2]
  B. signalgrass plant response rating: 0
Surinam grass; [3]
  B. signalgrass plant response rating: 3
Surinam grass; [4]
  B. signalgrass plant response rating: 0
Surinam grass; [5]
  Plant response rating, B. signalgrass: 4
Surinam grass; [6]
  Plant response rating, B. signalgrass: 8
Surinam grass; [7]
  B. signalgrass plant response rating: 9
Surinam grass; Rate 500 g/ha, Postemergence, scale of 0 to 10 where 0 is no effect and 10 is complete control
  B. signalgrass plant response rating: 3
blackgrass; [2]
  Blackgrass plant response rating: 0
blackgrass; [3]
  Blackgrass plant response rating: 2
blackgrass; [4]
  Blackgrass plant response rating: 0
blackgrass; [5]
  Plant response rating, Blackgrass: 4
blackgrass; [6]
  Plant response rating, Blackgrass: 7
blackgrass; [7]
  Blackgrass plant response rating: 9
blackgrass; [8]
  Blackgrass plant response rating: 0
blackgrass; [9]
  Blackgrass plant response rating: 6
bedstraw; [4]
  Bedstraw plant response rating: 0
bedstraw; [5]
  Plant response rating, Bedstraw: 0
bedstraw; [6]
  Plant response rating, Bedstraw: 2
bedstraw; [7]
  Bedstraw plant response rating: 5
bedstraw; [9]
  Bedstraw plant response rating: 6
morningglory; [2]
  Morningglory plant response rating: 6
morningglory; [3]
  Morningglory plant response rating: 6
morningglory; [4]
  Morningglory plant response rating: 0
morningglory; [5]
  Plant response rating, Morningglory: 0
morningglory; [6]
  Plant response rating, Morningglory: 0
morningglory; [7]
  Morningglory plant response rating: 0
morningglory; [8]
  Morningglory plant response rating: 5
morningglory; [9]
  Morningglory plant response rating: 9
cocklebur; [2]
  Cocklebur plant response rating: 2
cocklebur; [3]
  Cocklebur plant response rating: 2
cocklebur; [4]
  Cocklebur plant response rating: 0
cocklebur; [5]
  Plant response rating, Cocklebur: 0
cocklebur; [7]
  Cocklebur plant response rating: 0
cocklebur; [8]
  Cocklebur plant response rating: 0
cocklebur; [9]
  Cocklebur plant response rating: 5
wheat; [2]
  Wheat plant response rating: 0
wheat; [4]
  Wheat plant response rating: 0
wheat; [10]
  Wheat plant response rating (0 to 10 scale): 0
wheat; [11]
  Plant response rating, Wheat: 0
wheat; [7]
  Wheat plant response rating: 3
wheat; [8]
  Wheat plant response rating: 0
wheat; [12]
  Plant response rating, Wheat: 0
wheat; [9]
  Wheat plant response rating: 0
Giant foxtail; [2]
  Giant foxtail plant response rating: 1
Giant foxtail; [3]
  Giant foxtail plant response rating: 7
Giant foxtail; [4]
  Giant foxtail plant response rating: 8
Giant foxtail; [5]
  Plant response rating, Giant foxtail: 8
Giant foxtail; [6]
  Plant response rating, Giant foxtail: 8
Giant foxtail; [7]
  Giant foxtail plant response rating: 10
Giant foxtail; [8]
  Giant foxtail plant response rating: 1
Giant foxtail; [9]
  Giant foxtail plant response rating: 8
soybean; [2]
  Soybean plant response rating: 5
soybean; [4]
  Soybean plant response rating: 0
soybean; [5]
  Plant response rating, Soybean: 0
soybean; [6]
  Plant response rating, Soybean: 0
soybean; [7]
  Soybean plant response rating: 0
soybean; [8]
  Soybean plant response rating: 5
soybean; [13]
  Plant response rating, Soybean: 6
soybean; [9]
  Soybean plant response rating: 6
pigweed; [2]
  Redroot pigweed plant response rating: 2
pigweed; [4]
  Redroot pigweed plant response rating: 4
pigweed; [5]
  Plant response rating, Redroot pigweed: 7
pigweed; [6]
  Plant response rating, Redroot pigweed: 8
pigweed; [7]
  Redroot pigweed plant response rating: 8
pigweed; [8]
  Redroot pigweed plant response rating: 2
pigweed; [13]
  Plant response rating, Redroot pigweed: 3
pigweed; [9]
  Redroot pigweed plant response rating: 5
Wild oat; [2]
  Wild oats plant response rating: 0
Wild oat; [4]
  Wild oats plant response rating: 0
Wild oat; [10]
  Wild oats plant response rating (0 to 10 scale): 0
Wild oat; [11]
  Plant response rating, Wild oats: 5
Wild oat; [7]
  Wild oats plant response rating: 6
Wild oat; [8]
  Wild oats plant response rating: 0
Wild oat; [12]
  Plant response rating, Wild oats: 0
Wild oat; [9]
  Wild oats plant response rating: 0
bamyardgrass; [14]
  Barnyardgrass plant response rating: 0
bamyardgrass; [1]
  Barnyardgrass plant response rating: 0
bamyardgrass; [15]
  Barnyardgrass plant response rating: 0
bamyardgrass; [16]
  Plant response rating, Barnyardgrass: 8
bamyardgrass; [17]
  Barnyardgrass plant response rating: 6
bamyardgrass; [18]
  Barnyardgrass plant response rating: 9
bamyardgrass; Rate 2000 g/ha, Pre-emergence (as headed), scale 0 to 10, 0 no effect, 10 complete control
  Barnyardgrass plant response rating: 9
bamyardgrass; [19]
  Barnyardgrass plant response rating: 0
rape; [2]
  Rape plant response rating: 0
rape; [3]
  Rape plant response rating: 2
rape; [4]
  Rape plant response rating: 0
rape; [5]
  Plant response rating, Rape: 0
rape; [6]
  Plant response rating, Rape: 0
rape; [7]
  Rape plant response rating: 0
rape; [8]
  Rape plant response rating: 0
rape; [9]
  Rape plant response rating: 3
Purple nutsedge; [2]
  Nutsedge plant response rating: 0
Purple nutsedge; [3]
  Nutsedge plant response rating: 0
Purple nutsedge; [4]
  Nutsedge plant response rating: 0
Purple nutsedge; [5]
  Plant response rating, Nutsedge: 0
Purple nutsedge; [6]
  Plant response rating, Nutsedge: 0
Purple nutsedge; [7]
  Nutsedge plant response rating: 0
Purple nutsedge; [8]
  Nutsedge plant response rating: 0
Purple nutsedge; [9]
  Nutsedge plant response rating: 0
Smallflower flatsedge; [14]
  S. Flatsedge plant response rating: 5
Smallflower flatsedge; Pre-emergence, Rate 1000 g/ha, scale 0 to 10 (0 no effect, 10 complete control)
  S. Flatsedge plant response rating: 9
Smallflower flatsedge; [20]
  S. Flatsedge plant response rating: 3
Smallflower flatsedge; Rate 250 g/ha, Postemergence (flood test), scale 0 to 10, 0 is no effect, 10 is complete control
  Plant response rating, S. Flatsedge: 5
Smallflower flatsedge; [15]
  S. Flatsedge plant response rating: 0
Smallflower flatsedge; [16]
  Plant response rating, S. Flatsedge: 3
Smallflower flatsedge; [17]
  S. Flatsedge plant response rating: 6
Smallflower flatsedge; [21]
  S. Flatsedge plant response rating: 9
Duck salad; [14]
  Ducksalad plant response rating: 0
Duck salad; [20]
  Ducksalad plant response rating: 0
Duck salad; [15]
  Ducksalad plant response rating: 0
Duck salad; [16]
  Plant response rating, Ducksalad: 0
Duck salad; [17]
  Ducksalad plant response rating: 0
Duck salad; [18]
  Ducksalad plant response rating: 0
Duck salad; [21]
  Ducksalad plant response rating: 0
Duck salad; [19]
  Ducksalad plant response rating: 0
Sugar beet; [2]
  Sugarbeets plant response rating: 0
Sugar beet; [4]
  Sugarbeets plant response rating: 0
Sugar beet; [10]
  Sugarbeets plant response rating (0 to 10 scale): 3
Sugar beet; [11]
  Plant response rating, Sugarbeets: 7
Sugar beet; [7]
  Sugarbeets plant response rating: 7
Sugar beet; [8]
  Sugarbeets plant response rating: 0
Sugar beet; [12]
  Plant response rating, Sugarbeets: 4
Sugar beet; [9]
  Sugarbeets plant response rating: 4
